# In paper PMC9295122, “Sialic Acid Derivatives Inhibit SiaT Transporters and Delay Bacterial Growth” (ACS Chemical Biology, 2022):
# Read-outs that look alike come from different tables or passages of the source.
# Legend:
# PmSiaT = biological target: T1, PmSiaT (Proteus mirabilis, UniProt B4EZY7); assay: nanoDSF thermal shift assay, PmSiaT; type: binding; settings: for Average 1 / Average 2 / Average 3 / Replicate 1 / Replicate 2 / Replicate 3: PmSiaT Tm; for Average 1: average of experiment 1; for Average 2: average of experiment 2; for Average 3: average of experiment 3; for Replicate 1: experiment 1, second capillary; for Replicate 2: experiment 2, second capillary; for Replicate 3: experiment 3, second capillary; for Tm 1: experiment 1, first capillary; for Tm2: experiment 2, first capillary; for Tm 3: experiment 3, first capillary; for ΔTm at 1250 µM: read-out: ΔTm average overall
# T1 construct: made in house
# T1 sequence (B4EZY7 1-496): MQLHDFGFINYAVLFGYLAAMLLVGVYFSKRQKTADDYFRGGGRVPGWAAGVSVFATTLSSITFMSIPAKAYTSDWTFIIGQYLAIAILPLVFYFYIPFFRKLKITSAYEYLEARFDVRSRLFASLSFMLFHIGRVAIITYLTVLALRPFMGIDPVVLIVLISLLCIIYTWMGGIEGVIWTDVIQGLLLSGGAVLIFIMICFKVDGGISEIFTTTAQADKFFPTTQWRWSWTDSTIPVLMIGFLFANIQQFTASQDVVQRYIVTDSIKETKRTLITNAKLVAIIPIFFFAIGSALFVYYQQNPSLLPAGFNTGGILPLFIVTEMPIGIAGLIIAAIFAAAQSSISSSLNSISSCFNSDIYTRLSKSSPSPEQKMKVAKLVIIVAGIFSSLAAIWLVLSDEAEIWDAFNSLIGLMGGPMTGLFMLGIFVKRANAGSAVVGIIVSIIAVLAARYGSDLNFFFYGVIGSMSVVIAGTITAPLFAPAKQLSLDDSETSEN
# Experimental: (§1) Nano-differential scanning fluorimetry (nanoDSF) is a high-throughput method that relies on the thermal stabilization of the folded protein state by a bound ligand.[33]
# (§2) The melting points of protein–inhibitor complexes were measured on a Prometheus NT.48 instrument from NanoTemper Technologies. Solutions containing the protein at 2 μM in phosphate buffered saline with 0.0174% (w/v) dodecylmaltoside (DDM) and the ligand at 1.25 mM were loaded onto standard capillaries by NanoTemper. The temperature was increased from 25 to 95 °C at a ramp rate of 1 °C/min. The fluorescence was recorded at 330 and 350 nm and as a ratio of the two wavelengths.
# (§3) The intensity ratio and its first derivative were calculated using manufacturer’s software (PR.ThermControl, version 2.1.2).
# (§4) The melting temperatures have been measured in 3 separate experiments. In each experiment, two capillaries were included per compound, having therefore 2 technical replicates per experiment. In the table all data is presented. Tm1 and Replicate 1 represent the two replicates of the first experiment. Average 1 is the average between Tm 1 and Replicate 1. ΔTm 1 is the thermal shift when compared to the Tm of Neu5Ac. This is calculated from Average 1. The ΔTm presented in the article are the ΔTm average overall, which represent the overall average of the averages from the three experiments. The standard deviation (SD) is calculated from the […]
# SaSiaT = SaSiaT (Staphylococcus aureus, UniProt A0A0H2XJ46); assay: nanoDSF thermal shift assay, SaSiaT; type: binding; settings: for Average 1 / Average 2 / Average 3 / Replicate 1 / Replicate 2 / Replicate 3: SaSiaT Tm; for Average 1: average of experiment 1; for Average 2: average of experiment 2; for Average 3: average of experiment 3; for Replicate 1: experiment 1, second capillary; for Replicate 1 / Replicate 2 / Replicate 3 / Tm 1 / Tm2 / Tm 3 / Overall average (Tm): 1.25 mM; for Replicate 2: experiment 2, second capillary; for Replicate 3: experiment 3, second capillary; for Tm 1 / Tm2 / Tm 3 / Overall average (Tm): SaSiaT; for Tm 1: experiment 1, first capillary; for Tm2: experiment 2, first capillary; for Tm 3: experiment 3, first capillary; for Overall average (Tm): three experiments
# Chain of SaSiaT (A0A0H2XJ46 entry or part of it): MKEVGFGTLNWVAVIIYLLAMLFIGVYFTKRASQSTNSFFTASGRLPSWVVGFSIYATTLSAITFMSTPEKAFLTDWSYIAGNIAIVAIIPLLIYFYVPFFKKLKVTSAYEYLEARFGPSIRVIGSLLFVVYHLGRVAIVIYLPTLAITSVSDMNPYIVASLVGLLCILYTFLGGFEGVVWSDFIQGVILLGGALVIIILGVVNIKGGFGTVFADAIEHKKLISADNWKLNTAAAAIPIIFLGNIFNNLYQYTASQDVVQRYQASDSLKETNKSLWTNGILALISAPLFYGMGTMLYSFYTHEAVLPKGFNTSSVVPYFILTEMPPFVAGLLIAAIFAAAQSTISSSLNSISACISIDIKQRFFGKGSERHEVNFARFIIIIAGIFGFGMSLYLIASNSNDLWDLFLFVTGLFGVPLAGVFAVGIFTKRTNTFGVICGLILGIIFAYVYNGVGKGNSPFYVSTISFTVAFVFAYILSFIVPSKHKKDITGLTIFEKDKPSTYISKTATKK
# Experimental: as §1, §2, §3, §4
# [1] = PmSiaT, experiment 1, vs Neu5Ac, read-out: ΔTm 1
# [2] = PmSiaT, experiment 2, vs Neu5Ac, read-out: ΔTm 2
# [3] = PmSiaT, experiment 3, vs Neu5Ac, read-out: ΔTm 3
# [4] = PmSiaT, three experiments, 1.25 mM
# [5] = PmSiaT, three experiments, vs Neu5Ac, 1.25 mM
Compound,Average 1 (PmSiaT) [°C],Average 2 (PmSiaT) [°C],Average 3 (PmSiaT) [°C],Replicate 1 (PmSiaT; 1.25 mM) [°C],Replicate 2 (PmSiaT; 1.25 mM) [°C],Replicate 3 (PmSiaT; 1.25 mM) [°C],"Tm 1 (PmSiaT; PmSiaT, 1.25 mM) [°C]","Tm2 (PmSiaT; PmSiaT, 1.25 mM) [°C]","Tm 3 (PmSiaT; PmSiaT, 1.25 mM) [°C]",Tm average overall (PmSiaT; [4]) [°C],Average 1 (SaSiaT) [°C],Average 2 (SaSiaT) [°C],Average 3 (SaSiaT) [°C],Replicate 1 (SaSiaT) [°C],Replicate 2 (SaSiaT) [°C],Replicate 3 (SaSiaT) [°C],Tm 1 (SaSiaT) [°C],Tm2 (SaSiaT) [°C],Tm 3 (SaSiaT) [°C],Overall average (Tm) (SaSiaT) [°C],other results
O=C(NC1C(O)CC(O)(C(=O)O)OC1C(O)C(O)CO)c1ccccc1 (stereo not drawn) [Compound 6d],45.2,45.9,45.7,45.2,45.9,45.9,45.1,45.8,45.5,45.6,46.2,45.6,46.0,46.1,45.8,45.6,46.2,45.4,46.4,45.9,ΔTm (PmSiaT; [1]): -3.8 °C; ΔTm (PmSiaT; [2]): -3.3 °C; ΔTm (PmSiaT; [3]): -3.6 °C; ΔTm at 1250 µM (PmSiaT; [5]): -3.6 °C
CC(=O)NC1C(O)CC(O)(C(=O)O)OC1C(O)C(O)CBr (stereo not drawn) [Compound 8d],47.3,47.2,47.2,47.4,47.1,47.0,47.2,47.3,47.4,47.2,49.9,49.9,51.8,49.8,49.9,52.8,49.9,49.9,50.8,50.5,ΔTm (PmSiaT; [1]): -1.7 °C; ΔTm (PmSiaT; [2]): -2 °C; ΔTm (PmSiaT; [3]): -2.1 °C; ΔTm at 1250 µM (PmSiaT; [5]): -1.9 °C
CC(=O)NC1C(O)CC(O)(C(=O)O)OC1C(O)C(O)CI (stereo not drawn) [Compound 8e],46.9,47.2,47.3,46.7,47.2,47.2,47.2,47.3,47.3,47.1,49.3,49.0,49.5,49.3,48.9,49.1,49.2,49.0,49.9,49.3,ΔTm (PmSiaT; [1]): -2.1 °C; ΔTm (PmSiaT; [2]): -2 °C; ΔTm (PmSiaT; [3]): -2 °C; ΔTm at 1250 µM (PmSiaT; [5]): -2 °C
"O=C(CO)N[C@H]1[C@H]([C@H](O)[C@H](O)CO)OC(O)(C(=O)O)C[C@@H]1O (stereo partly drawn) [Neu5Gc, 5-N-glycolyl neuraminic acid, reference compound]",48.0,48.1,48.0,48.0,48.0,48.0,47.9,48.1,48.0,48.0,53.3,53.3,53.6,53.3,53.4,53.6,53.3,53.2,53.6,53.4,ΔTm at 1250 µM (PmSiaT): -1.2 °C
